The source of these data is EP0345931A1 (SCHERING CORPORATION, priority 1988, dated 1989).

The subject of one experiment is PAF-induced bronchospasm. Briefly: PAF-induced bronchospasm in guinea pigs. Type of experiment: in vivo. Conditions: Cavia porcellus.
In the next experiment the test system is PAF-induced lethality. As to the kind of experiment: PAF-induced lethality in mice. Format: in vivo, Swiss-Webster female CFW mice. As to conditions: for % Lethality: death recorded 1 hour after challenge; for effect on PAF-induced mortality: result in words; for ED50: Mus musculus, read-out: ED₅₀.
The subject of experiment [1] is ovalbumin-induced lethality (anaphylactic death). Briefly: Anaphylactic death in ovalbumin-sensitized mice. Format: in vivo, Swiss-Weber female CFW mice. As to conditions: for protection of sensitized animals from death: antihistamines given individually; for protection of sensitized animals from death / protection against allergic death (anaphylactic shock) / ovalbumin-induced lethality / protecting sensitized animals from death: result in words; for protection against allergic death (anaphylactic shock) / ovalbumin-induced lethality: ovalbumin sensitized mice; for protecting sensitized animals from death: i.p. at doses as high as 50 mg/kg (A) and 20 mg/kg (B). The procedure: Swiss-Weber female CFW mice (20-30 g) from Charles River were acclimatized for 7-14 days. Animals were sensitized by injecting intraperitoneally 0.5 ml of saline containing 1.6 mg of ovalbumin adsorbed to 100 mg of Al(OH)₃ gel. Ten to 15 days after sensitization, the animals, at least six per group, were injected intraveneously through the tail vein with 1.6 mg of ovalbumin in 0.5 ml of saline. One hundred percent of the sensitized animals died within 10-20 minutes. Injection of ovalbumin into normal mice caused no lethality. […] The compositions (given in dosages listed in the left-hand column of Table II below) were administered intraperitoneally either individually or in indicated combinations 30 minutes before challenge with albumin to sensitized mice. Death was recorded 1 hour after the challenge.

In another experiment the test system is PAF-acether. As to conditions: BN 52021 2 mg/kg p.o. alone (non-active dose); cited from earlier work.
The mark [2] stands for this setting: compound 5 mg/kg i.p. 30 minutes before i.v. PAF (200 µg/kg).
Where [3] appears, read: compound 10 mg/kg i.p. 30 minutes before i.v. PAF (200 µg/kg).

Where two headings read alike, the source gives them in different places.

Description for PAF-induced lethality: Swiss-Webster female CFW mice (from Charles River), 5-10 per group, were injected through the tail vein with PAF in 0.5 ml of saline containing bovine serum albumin, and death was recorded.

As to `Cc1nnc2n1-c1ccc(Cl)cc1C(c1ccccc1)=NC2` [alprazolam, 8-chloro-1-methyl-6-phenyl-4H-3-triazolo[4,3-a][1,2]-benzodiazepine], the ED50 with PAF-induced bronchospasm (iv, read-out: ED₅₀'s (i.v.)) came out at 3 mg/kg.
Take `CN1CCC(=C2c3ccccc3CC(=O)c3sccc32)CC1` [D, ketotifen]: the “% Lethality” value with PAF-induced lethality (compound 1.4 mg/kg i.p. 30 minutes before i.v. PAF (200 µg/kg)) was determined as 100%. Further, the “effect on PAF-induced mortality” value in the experiment with PAF-induced lethality is on record as “Neither chlorpheniramine, clemastine nor ketotifen affected PAF-induced mortality”. Further, the “% Survival” value in experiment [1] (D 0.1 mg/kg i.p. 30 minutes before ovalbumin challenge, pooled data) was 40%. Moreover, in experiment [1], the “protection of sensitized animals from death” value is recorded as “significant protection” and the “protection against allergic death (anaphylactic shock) / ovalbumin-induced lethality” value was “only partial protection”.
As for `COc1cc([C@H]2CC[C@H](c3cc(OC)c(OC)c(OC)c3)O2)cc(OC)c1OC` (relative stereo) [A, trans-2,5-bis(3,4,5-trimethoxyphenyl)tetrahydrofuran], the ED50 stood at 20 mg/kg in the experiment with PAF-induced lethality and 0.4 mg/kg in the experiment on PAF-induced bronchospasm (iv, read-out: ED₅₀'s (i.v.)). In addition, the “% Lethality” value is given as 84% with PAF-induced lethality (setting [2]), 72% in the experiment with PAF-induced lethality (setting [3]), 25% in the experiment with PAF-induced lethality (compound 25 mg/kg i.p. 30 minutes before i.v. PAF (200 µg/kg)) and 16% in the experiment with PAF-induced lethality (compound 50 mg/kg i.p. 30 minutes before i.v. PAF (200 µg/kg)). The “% Survival” value in experiment [1] (A 50 mg/kg i.p. 30 minutes before ovalbumin challenge, death recorded 1 hour after, pooled data from five experiments) is 0%. Besides, the “protecting sensitized animals from death” value in experiment [1] is “totally ineffective”.
On to `CN1CCC[C@@H]1CCO[C@](C)(c1ccccc1)c1ccc(Cl)cc1` [E, clemastine], for which, in the experiment on PAF-induced lethality, the “effect on PAF-induced mortality” value is listed as “Neither chlorpheniramine, clemastine nor ketotifen affected PAF-induced mortality”. In addition, the “% Survival” value in experiment [1] (E 0.2 mg/kg i.p. 30 minutes before ovalbumin challenge, pooled data) turned out to be 45%. In addition, in experiment [1], the “protection of sensitized animals from death” value was “significant protection” and the “protection against allergic death (anaphylactic shock) / ovalbumin-induced lethality” value is reported as “only partial protection”.
Take `C[C@@H]1C(=O)O[C@H]2[C@@H](O)[C@@]34[C@H]5C[C@@H](C(C)(C)C)[C@]36[C@@H](OC(=O)[C@@H]6O)O[C@@]4(C(=O)O5)[C@@]12O` [BN 52021, ginkgolide B]: in the experiment on PAF-acether, the change of bronchospasm is listed as -10%.
Consider `Cc1nnc2n1-c1sc(CCC(=O)N3CCOCC3)cc1C(c1ccccc1Cl)=NC2` [B, 4-(2-chlorophenyl)-9-methyl-6H-thieno[3,2-f][1,2,4]triazolo[4,3-a][1,4]diazepine-2-propionic acid morpholide], for which the ED50 with PAF-induced lethality was 1.5 mg/kg; in the experiment with PAF-induced bronchospasm (po, PAF-induced bronchospasm, read-out: ED₅₀ (p.o.)), 0.1 mg/kg. Further, the “% Lethality” value in the experiment with PAF-induced lethality (compound 1 mg/kg i.p. 30 minutes before i.v. PAF (200 µg/kg)) turned out to be 84%; in the experiment on PAF-induced lethality (compound 2 mg/kg i.p. 30 minutes before i.v. PAF (200 µg/kg)), 20%; in the experiment on PAF-induced lethality (setting [2]), 16%; in the experiment on PAF-induced lethality (setting [3]) it was 0%. Besides, the “% Survival” value in experiment [1] (B 5 mg/kg i.p. 30 minutes before ovalbumin challenge, death recorded 1 hour after, pooled data from five experiments) is 0%. The “protecting sensitized animals from death” value in experiment [1] was “totally ineffective”.
